Laboratory results from patent US11434246B2, “EP4 antagonists” (Eisai R&D Management Co., Ltd., priority 2015, dated 2022).
pIC50, pKi: −log10 of the molar value. Values belong to the molecule of their own block, whether it stands above or below them.

Legend:
mouse EP4 receptor = target: T1, mouse EP4 receptor (Mus musculus, UniProt P32240); experiment: Competitive Radioligand EP4 Receptor Binding Assay ([3H]-PGE2, U2OS membranes); conditions: mouse EP4-overexpressing cell membrane fraction, 12 nM [3H]-PGE2; read-out: Ki of inhibition of radiolabelled PGE2 binding, mouse EP4
T1 construct: purchased Genscript; host or cells: U2OS clone
Procedure: (§1) Competitive Radioligand EP4 Receptor Binding Assay: The assay was performed using ChemiScreen recombinant human EP4 receptor membrane preparations from Millipore using Chem-1 cells and mouse EP4 receptor membrane preparations from Genscript using U2OS clone, according to manufacturer's instructions. For human EP4 binding, 10 μg Chem-1 cell membranes overexpressing human EP4 cDNA were mixed with 12 nM [^3H]-PGE2 and 5 μmol/L unlabeled PGE2 or 0.1% DMSO in the presence or absence of various concentrations of testing compounds in binding buffer (50 mM HEPES, pH 7.4, 5 mM MgCl2, 1 mM CaCl2, 0.2% BSA) in a nonbinding 96-well plate, and incubated for 2 h at room temperature. For mouse EP4 binding, 60 μg of U2OS membranes were used in the same condition. Prior to filtration, a GF/C 96-well filter plate was coated with 0.33% polyethyleneimine for 30 min, then washed with 50 mM HEPES, pH 7.4, 0.5% BSA. Binding reactions were transferred to the filter plate, and washed 3 times with assay Wash Buffer (50 mM HEPES, pH7.4, 500 mM NaCl, 0.1% BSA). The plate was dried and radioactivity counted. The data were processed using PRISM software, and IC50 and Ki values were calculated using the same software.

4T1 cells = experiment: In vivo anti-tumor pharmacology, mouse breast 4T1 syngeneic tumor model
Procedure: In vivo Anti-tumor Pharmacology: 4T1 cells were maintained in RPMI 1640 medium supplemented with 10% FBS at 37° C. and 5% CO2 atmosphere. Cell detachment was obtained using standard trypsinization methods, quantification of cell numbers and viability information using the NC-200 automated cell counter. Compound 1 was thoroughly suspended in 0.5% methyl cellulose (MC) by sonication at 4° C. for 15 min before oral administration (p.o.) to animals. BALB/c mice were injected subcutaneously (s.c.) with live 1×10^5 4 T1 cells. Mice developed tumors of approximately 36 mm^3 in 5 days. 4T1 tumor-bearing mice were randomized and mapped into 5 groups of 10 mice each: group A received vehicle (0.5% MC); group B received 0.1 mg/kg of compound 1; group C received 1 mg/kg of compound 1, group D received 25 mg/kg of compound 1; and group E received 150 mg/kg of compound 1. All treatments were give p.o. daily for 21 consecutive days. Tumor volumes and body weights were measured twice weekly. Study was terminated 27 days after tumor cell injection. Tumor volumes were expressed as mean±SEM. Tumor volume differences among treated mouse groups on day 27 were analyzed by the one-way ANOVA followed by Tukey's test. P≤0.05 values were considered significant.

EP4 [1] = target: T2, EP4 (Homo sapiens, UniProt P35408); experiment: Competitive Radioligand EP4 Receptor Binding Assay ([3H]-PGE2, Chem-1 cell membranes); parameters: purchased Millipore; host or cells: Chem-1 cells; conditions: human EP4-overexpressing cell membrane fraction, 12 nM [3H]-PGE2; read-out: Ki of inhibition of radiolabelled PGE2 binding, human EP4
Procedure: as §1

EP4 [2] = target: T2, EP4; experiment: EP4 Antagonism by CRE-PLAP Reporter Assay (SE302 cells, PGE2-stimulated); format: cell-based; parameters: HEK293 cells express endogenous EP4; endogenous in cells; host or cells: SE302 (HEK293 clone with CRE-PLAP reporter); conditions: SE302 (HEK293) cells, 3 ng/mL PGE2, overnight; single or multiple assay average values
Procedure, shortened: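 HEK293-derived SE302 cells with endogenous EP4 and CRE-driven secreted PLAP, in serum-free medium with 0.1% BSA, stimulated overnight with 3 ng/mL PGE2 plus compound. Supernatant PLAP read by luminescence (pH 11 carbonate buffer, 2 h). IC50 from % of control, normalized to DMSO with and without PGE2.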

T2 sequence (P35408 whole entry): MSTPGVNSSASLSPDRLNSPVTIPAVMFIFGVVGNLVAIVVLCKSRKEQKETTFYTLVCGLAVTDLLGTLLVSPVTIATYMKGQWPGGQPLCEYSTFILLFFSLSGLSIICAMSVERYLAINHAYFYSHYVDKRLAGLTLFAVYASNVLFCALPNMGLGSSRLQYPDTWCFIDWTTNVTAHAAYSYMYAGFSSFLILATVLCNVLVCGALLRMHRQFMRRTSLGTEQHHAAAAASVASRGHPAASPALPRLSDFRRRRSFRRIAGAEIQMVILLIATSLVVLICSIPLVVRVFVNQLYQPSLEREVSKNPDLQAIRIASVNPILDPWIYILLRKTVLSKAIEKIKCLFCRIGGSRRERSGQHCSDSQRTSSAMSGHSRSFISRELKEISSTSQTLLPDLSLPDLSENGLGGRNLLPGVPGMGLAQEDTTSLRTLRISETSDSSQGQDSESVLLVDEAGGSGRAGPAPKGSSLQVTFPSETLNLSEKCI
T1 sequence (P32240 whole entry): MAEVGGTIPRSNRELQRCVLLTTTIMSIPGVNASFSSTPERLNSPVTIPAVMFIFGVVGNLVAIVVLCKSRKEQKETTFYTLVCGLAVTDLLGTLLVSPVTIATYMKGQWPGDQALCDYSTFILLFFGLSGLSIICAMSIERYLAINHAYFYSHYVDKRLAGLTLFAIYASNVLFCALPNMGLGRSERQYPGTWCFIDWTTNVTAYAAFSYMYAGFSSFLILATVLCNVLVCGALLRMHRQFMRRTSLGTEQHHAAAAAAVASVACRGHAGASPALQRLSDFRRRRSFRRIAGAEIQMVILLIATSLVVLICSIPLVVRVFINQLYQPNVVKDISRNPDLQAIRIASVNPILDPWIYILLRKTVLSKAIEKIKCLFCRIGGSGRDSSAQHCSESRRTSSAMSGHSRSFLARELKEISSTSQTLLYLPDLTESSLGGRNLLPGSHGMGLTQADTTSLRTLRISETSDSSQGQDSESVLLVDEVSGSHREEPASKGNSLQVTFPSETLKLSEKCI

SMILES: C[C@H](NC(=O)c1c(C(F)(F)F)nn2c1N(Cc1cccc(C(F)(F)F)c1)CC2)c1ccc(C(=O)O)cc1 [Compound 1, (S)-4-(1-(6-(trifluoromethyl)-1-(3-(trifluoromethyl)benzyl)-2,3-dihydro-1H-imidazo[1,2-b]pyrazole-7-carboxamido)ethyl)benzoic Acid]
pKi (mouse EP4 receptor): 7.58 | gross toxicity judged from animal body weight and overall animal behavior (4T1 cells; 0.1-150 mg/kg p.o. daily for 21 days, BALB/c mice): None of the doses tested showed gross toxicity | tumor growth inhibition (4T1 cells; 0.1 and 1.0 mg/kg p.o. daily for 21 days, day 27): some inhibition was observed, but without statistical significance | tumor growth inhibition (4T1 cells; 25 and 150 mg/kg p.o. daily for 21 days, day 27): Statistically significant inhibition of tumor growth | tumor growth inhibition (4T1 cells; 25 and 150 mg/kg p.o. daily for 21 days, day 27, listed as compound 1): significant and comparable anti-tumor activity | tumor growth inhibition (4T1 cells; BALB/c mice, 4T1 s.c. tumors, p.o. daily for 21 days, range 0.1 mg/kg-150 mg/kg): inhibited the tumor growth in a dose-dependent manner | pKi (EP4 [1]): 8.38 | pIC50 (EP4 [2]): 9.47

SMILES: C[C@H](NC(=O)c1c(C(F)(F)F)nn2c1N(Cc1ccc(CCCF)cc1)CC2)c1ccc(C(=O)O)cc1 [Compound 97, (S)-4-(1-(1-(4-(3-fluoropropyl)benzyl)-6-(trifluoromethyl)-2,3-dihydro-1H-imidazo[1,2-b]pyrazole-7-carboxamido)ethyl)benzoic Acid]
pIC50 (EP4 [2]): 7.66

SMILES: C[C@H](NC(=O)c1c(C(F)(F)F)nn2c1N(Cc1ccc(CCCF)c(C(F)(F)F)c1)CC2)c1ccc(C(=O)O)cc1 [Compound 98, (S)-4-(1-(1-(4-(3-Fluoropropyl)-3-(trifluoromethyl)benzyl)-6-(trifluoromethyl)-2,3-dihydro-1H-imidazo[1,2-b]pyrazole-7-carboxamido)ethyl)benzoic Acid]
pIC50 (EP4 [2]): 7.75

SMILES: C[C@H](NC(=O)c1c(C(F)(F)F)nn2c1N(Cc1cc(CCCF)cc(C(F)(F)F)c1)CC2)c1ccc(C(=O)O)cc1 [Compound 99, (S)-4-(1-(1-(3-(3-Fluoropropyl)-5-(trifluoromethyl)benzyl)-6-(trifluoromethyl)-2,3-dihydro-1H-imidazo[1,2-b]pyrazole-7-carboxamido)ethyl)benzoic Acid]
pIC50 (EP4 [2]): 7.94

The remaining molecules from weak to strong by pIC50 (EP4 [2]), led by results:

pIC50 (EP4 [2]): 7.41
SMILES: COC(=O)c1ccc([C@H](C)NC(=O)c2c(C(F)(F)F)nn3c2N(C(=O)c2ccccc2F)CC3)cc1 [Compound 102]

pIC50 (EP4 [2]): 7.48
SMILES: C[C@H](NC(=O)c1c(C(F)(F)F)nn2c1N(Cc1cccc(C(F)(F)F)c1)CC2)c1ccc(C(=O)NC2(C#N)CC2)cc1 [Compound 101, (S)—N-(1-(4-((1-Cyanocyclopropyl)carbamoyl)phenyl)ethyl)-6-(trifluoromethyl)-1-(3-(trifluoromethyl)benzyl)-2,3-dihydro-1H-imidazo[1,2-b]pyrazole-7-carboxamide]

pIC50 (EP4 [2]): 8.05
SMILES: C[C@H](NC(=O)c1c(C(F)(F)CO)nn2c1N(Cc1cccc(C(F)(F)F)c1)CC2)c1ccc(C(=O)O)cc1 [Compound 100, (S)-4-(1-(6-(1,1-Difluoro-2-hydroxyethyl)-1-(3-(trifluoromethyl)benzyl)-2,3-dihydro-1H-imidazo[1,2-b]pyrazole-7-carboxamido)ethyl)benzoic Acid]
